Results taken from patent US20200022957A1, “KINASE AND UBIQUITIN LIGASE INHIBITORS AND USES THEREOF” (ALDA S.R.L., priority 2015, published 2020).
Peptide text beside a SMILES is read from it. * marks the point of attachment. Cbz = O=C(OCc1ccccc1)*

Tests used:
ATP7B H1069Q [1] = experiment: Morphological assay of ATP7B H1069Q exit from ER to Golgi in HeLa cells (fluorescence microscopy); assay type: cell-based, human
Description: (§1) Cells were transfected with ATP7B-WT-GFP or ATP7B-H1069Q-GFP, incubated overnight with 200 μM BCS and/or drugs. Fixed cells were further labeled for TGN46 to mark and visualize the Golgi area under a confocal microscope. Under low copper conditions ATP7B-WT traffics to the Golgi from the ER, while ATP7B-H1069Q is retained within the ER. If the drug treatments induce the rescue of trafficking from the ER to the Golgi, the ATP7B-H1069Q-GFP fluorescence in the Golgi area increases. This is measured by quantifying (in 10 different microscopy fields in 100 cells) the increased in fluorescence of ATP7BWT-GFP or ATP7BH1069Q-GFP in the Golgi area (marked by TGN46) and normalizing this value to total cell fluorescence
CFBE or HeLa cells (in case of ATP7B) were transfected with constructs encoding the indicated mutant proteins and treated with JNKi II for 48 h.

ATP7B H1069Q [2] = experiment: Traffic-based screening of ATP7B H1069Q-GFP rescue in HEPG2 cells; assay type: cell-based, human; settings: HEPG2 cells expressing ATP7B H1069Q-GFP; 24 h
Description: (§2) Transiently ATP7B H1069Q-GFP expressing HeLa cells (A), HEPG2 cells and (C) human primary hepatocytes (E) treated with the inhibitors for 24 hours, cells are processed for immunofluorescence assay to measure the arrival of the ATP7B wt and H1069Q mutant from the ER to Golgi compartment. A, C, E) Normalized Golgi fluorescence of ATP7B is measured and plotted (n >50 cells). B, D, F) EC50 and recue effect (%) compared to the level ATP7B WT Golgi fluorescence calculated from (A), (C) and (E) respectively. […] All the inhibitor drugs except SB202190 are in clinical trial for treatment of various other diseases.
as §1, with “cell fluorescence […]” for “cell fluorescence”

ATP7B H1069Q [3] = experiment: Traffic-based screening of ATP7B H1069Q-GFP rescue in human primary hepatocytes; assay type: cell-based; settings: human primary hepatocytes expressing ATP7B H1069Q-GFP; 24 h
Description: as §2
as §1, with “cell fluorescence […]” for “cell fluorescence”

ATP7BH1069Q [4] = experiment: Copper estimation in HepG2 cells overexpressing ATP7BH1069Q; assay type: cell-based, human; settings: 1 μM, 24 hours, 200 μM copper sulphate for the last 2 hours
Description: FIG. 14: The VX-745 and BIRB-796 correctors reduce Copper levels in cells expressing ATP7BH1069Q mutant. HepG2 cells overexpressing indicated ATP7B constructs were incubated with 1 μM each of VX-745, BIRB-796 for 24 hours, for the last 2 hours of incubation with the inhibitors 200 μM copper sulphate is added to the cells with or without 100 μM BCS (copper chelator) as indicated. Cells were incubated with HBSS for 3 hours before lysed and used for copper estimation. Fold change in copper normalized to control is plotted (n=4). Both VX-745 and BIRB-796 reduced Copper levels in ATP7BH1069Q expressing cells (BCS is used in the assay as a control for the sensitivity of the assay).
Cells are lysed in RIPA buffer (150 mM NaCl, 1% Triton X-100, 0.5% deoxycholic acid, 0.1% SDS, 20 mM Tris-HCl, pH 7.4). 500 μg of total protein lysate in 100 μl is taken for copper estimation using Copper assay kit (MAK127 sigma-aldrich) according to the manufacturer's protocol.
ATP7B protein functions in the excretion of copper out of cells and tissue. As ATP7B H1069Q trafficking to the plasma membrane is impaired, the cells cannot excrete the copper, which leads to higher level of intracellular copper. If the corrector drugs promote the correct localization of the mutant, then the copper should be excreted, leading to lower intracellular levels.

F508del-CFTR [5] = experiment: F508del-CFTR proteostasis by western blotting (ER band B / Golgi-processed band C) in CFBE cells; assay type: cell-based, human; settings: 48 h, concentration series
Description: Cells were washed three times in ice-cold Dulbecco's phosphate-buffered saline, and lysed in RIPA buffer (150 mM NaCl, 1% Triton X-100, 0.5% deoxycholic acid, 0.1% SDS, 20 mM Tris-HCl, pH 7.4), supplemented with protease inhibitor cocktail and phosphatase inhibitors. The lysates were clarified by centrifugation at 15000×g for 15 min, and the supernatants were resolved by SDS-PAGE. BCA Protein Assay kit (Pierce) was used to quantitate protein levels before loading. The western blots were decorated with appropriate antibodies and developed using ECL. The blots were then exposed to x-ray films and exposure time was varied to obtain optimal signal. The x-ray films were then scanned and the bands were quantitated using ImageJ gel-analysis tool. The protein concentration and the exposures used for quantitation of the blots were optimized to be in a linear range of detection.
Inventors then turned to experimental validation of the role of the CORE genes in the regulation of F508del-CFTR proteostasis. Experiments were carried out using a characterised biochemical assay that detects both the amount of core-glycosylated CFTR trapped in the ER (band B with Western blotting) and the amount of CFTR fully glycosylated in the Golgi (most of which presumably resides at the PM; band C with Western blotting).

[6] = test system: P-glycoprotein mutant (P-gp DY490); experiment: Proteostasis of P-glycoprotein mutant in transfected CFBE cells (western blotting); assay type: cell-based
Description: (§3) C. CFBE cells were treated with 5 μM oxozeaenol for 48 h, or with MLK3 siRNA, or with both, and the correction of the F508del-CFTR folding/trafficking defect was monitored by changes in the levels of band C. There was no additive effect observed with the combination of MLK3 downregulation and oxozeaenol treatment. The quantitated band C levels are expressed as mean±SD (n>3). D. CFBE cells were treated with 5 μM oxozeaenol for 24 h, and the activity of the JNK pathway was measured by western blotting for phospho c-jun levels and F508del-CFTR. […] E. CFBE cells were treated with flunarizine (at concentrations 6.25-50 μM) targeting the CAMKK2 pathway for 48 h and the effect on F508del-CFTR proteostasis measured by western blotting. Treatment with flunarizine increased the levels of band C of F508del-CFTR. […] F. CFBE cells transiently transfected with the P-glycoprotein mutant (P-gp DY490), the NCC mutant (R948X), or the hERG mutant (G601S) were treated with JNKi II for 24 h, and the effect of the drug on their proteostasis monitored by western blotting.
(§4) The level of correction obtained with these inhibitors is higher than the effects of the corrector compounds from which the pathways were deduced (FIG. 3A), and similar to, or higher than, the effects of VX-809. […]

hERG mutant (G601S) = experiment: Proteostasis of hERG mutant in transfected CFBE cells (western blotting); assay type: cell-based, human
Description: as §3, §4

NCC mutant (R948X) = experiment: Proteostasis of NCC mutant in transfected CFBE cells (western blotting); assay type: cell-based
Description: as §3, §4

ATP7B R778L = ATP7B R778L translocation from ER to Golgi in HeLa cells (fluorescence microscopy); assay type: cell-based, human; settings: JNKi II 5 μM, 48 h, fraction of protein in Golgi by fluorescence microscopy, DMSO control 12
Description: Inventors next examined the effects of the MLK3 pathway inhibition on the proteostasis of other conformational disease mutants. Inventors transfected CFBE (and HeLa) cells with different conformational mutants (i.e., Sodium-chloride symporter [NCC, [MUT] mutant]; P-glycoprotein, [P-gp, [MUT] and DY490 mutants]; human Ether-a-go-go-Related Gene [hERG, [MUT] mutant]; Wilson's disease associated protein [ATP7B, [MUT] and [MUT] mutants]) and then treated cells with JNKi II and monitored these proteins by assessing changes in their glycosylation patterns (NCC, P-gp, hERG mutants) or in their intracellular movement from the ER to the Golgi complex (ATP7B mutants). […] CFBE or HeLa cells (in case of ATP7B) were transfected with constructs encoding the indicated mutant proteins and treated with JNKi II for 48 h.

ATP7BH1069Q [7] = experiment: Immunofluorescence assay for correction of ATP7B: cells with ATP7BH1069Q signal in the ER, HeLa cells; assay type: cell-based, human; settings: 24 h, SB202190 5 μM, VX-745 1 μM, SP600125 2 μM, Oxozeaenol 5 μM, 100 μM CuSO4 2 h
Description: (A) HeLa cells were infected with Ad-ATP7BWT-GFP (Chesi et al., 2016) or Ad-ATP7BH1069Q-GFP, incubated overnight with 200 μM BCS, and incubated for an additional 2 h with 100 μM CuSO4. In response to Cu, ATP7BWT traffics from the Golgi to PM and vesicle, while ATP7BH1069Q are retained within the ER under high Cu conditions. Addition of p38 inhibitor SB202190 (5 μM), VX-745(1 μM), JNK inhibitor SP600125 (2 μM) and Oxozeaenol (5 μM) (as indicated in corresponding panels) to the cells 24 h corrects ATP7BH1069Q from the ER to PM and vesicles (arrows) (B) Cells were treated as in panel A. The percentage of the cells (average±SD, n=50 fields) with an ATP7B signal in the ER, were calculated.
Cells were fixed with 4% paraformaldehyde in 0.2 M HEPES for 10 mins, permeabilized, labeled with primary and secondary antibodies, and examined with a ZEISS LSM 700 confocal microscope equipped with a 63×1.4 numerical aperture oil objective. The cells were scored based on the disappearance of ATP7B from the ER.

proteasome = experiment: Proteasome ZsProsensor-1 fluorescence in CFBE cells; assay type: cell-based, human; settings: MG132 20 μg/ml for 3 h, positive control
Description: CFBE cells treated with MLK3 or JNK2 siRNA for 72 h were transfected with Proteasome ZsProsensor-1 for the final 24 h, and the levels Proteasome ZsProsensor-1 monitored by fluorescence microscopy. Treatment with MG132 (20 μg/ml for 3 h), a proteasomal inhibitor, was used as a positive control.

JNK = experiment: phospho-c-jun levels by western blotting as a measure of JNK inhibition in CFBE cells; assay type: cell-based, human; settings: 24 h, oxozeaenol 5 μM
Description: A. CFBE cells were treated with indicated JNK inhibitors for 24 h and processed for western blotting. The levels of phospho-c-jun as a measure of JNK inhibition was monitored. […] B. CFBE cells were treated with TAK1 or MLK3 siRNA as indicated and changes in F508del-CFTR proteostasis were monitored by western blotting.
C. CFBE cells were treated with 5 μM oxozeaenol for 48 h, or with MLK3 siRNA, or with both, and the correction of the F508del-CFTR folding/trafficking defect was monitored by changes in the levels of band C. There was no additive effect observed with the combination of MLK3 downregulation and oxozeaenol treatment. The quantitated band C levels are expressed as mean±SD (n>3). D. CFBE cells were treated with 5 μM oxozeaenol for 24 h, and the activity of the JNK pathway was measured by western blotting for phospho c-jun levels and F508del-CFTR. […] E. CFBE cells were treated with flunarizine (at concentrations 6.25-50 μM) targeting the CAMKK2 pathway for 48 h and the effect on F508del-CFTR proteostasis measured by western blotting. Treatment with flunarizine increased the levels of band C of F508del-CFTR. […] F. CFBE cells transiently transfected with the P-glycoprotein mutant (P-gp DY490), the NCC mutant (R948X), or the hERG mutant (G601S) were treated with JNKi II for 24 h, and the effect of the drug on their proteostasis monitored by western blotting. […]

F508del-CFTR [8] = settings: primary human bronchial epithelial cells (Trzcinska-Daneluti et al. 2012); cited from earlier work

## Cc1ccc(-n2nc(C(C)(C)C)cc2NC(=O)Nc2ccc(OCCN3CCOCC3)c3ccccc23)cc1 [BIRB-796]
ATP7B H1069Q [1]; HeLa cells expressing ATP7B H1069Q-GFP, 24 h
  rescue of ATP7B H1069Q localization (ER exit to the Golgi compartment): potently rescue
ATP7B H1069Q [2]
  rescue of ATP7B H1069Q (ER to Golgi): rescue H1069Q potently
ATP7B H1069Q [3]
  rescue of ATP7B H1069Q (ER to Golgi): rescue H1069Q potently
ATP7BH1069Q [4]
  Copper levels in ATP7BH1069Q expressing cells: reduced

## O=C1c2ccccc2-c2n[nH]c3cccc1c23 [JNKi II]
F508del-CFTR [5]
  levels of band B and band C of F508del-CFTR: robust increases
[6]; JNKi II 24 h
  trafficking of P-gp DY490 out of the ER (Golgi-associated band C): enhanced
[6]; P-Glycoprotein DY490, JNKi II 5 μM, 48 h, protein processed by the Golgi, DMSO control 24
  Correction (% of wild type): 44 % of wild type
hERG mutant (G601S); JNKi II 24 h
  proteostasis of hERG mutant (G601S), levels of bands B and C: enhanced degradation
hERG mutant (G601S); table row 'hERG R948X', JNKi II 5 μM, 48 h, protein processed by the Golgi, DMSO control 44
  Correction (% of wild type): 24 % of wild type
NCC mutant (R948X); JNKi II 24 h
  proteostasis of NCC mutant (R948X), levels of bands B and C: enhanced degradation
NCC mutant (R948X); table row 'NCC G601S', JNKi II 5 μM, 48 h, protein processed by the Golgi, DMSO control 10
  Correction (% of wild type): 9 % of wild type
ATP7B H1069Q [1]; ATP7B H1069Q, JNKi II 5 μM, 48 h, HeLa cells, fraction of protein in Golgi by fluorescence microscopy, DMSO control 32
  Correction (% of wild type): 80 % of wild type
ATP7B R778L
  Correction (% of wild type): 40 % of wild type
ATP7BH1069Q [7]
  percentage of the cells exhibiting ATP7BH1069Q in the ER: reduced

## CC(C)C[C@@H](C=O)NC(=O)[C@H](CC(C)C)NC(=O)[C@H](CC(C)C)NC(=O)OCc1ccccc1 [MG132] (Cbz-Leu-Leu-Leu-aldehyde)
proteasome
  fluorescence levels of ZsProsensor-1 compared to untreated cells: increases

## COc1cc(O)c2c(c1)/C=C/C[C@H](O)[C@H](O)C(=O)/C=C\C[C@H](C)OC2=O [Oxozeaenol, (5Z)-7-oxozeaenol]
F508del-CFTR [5]
  levels of band B and band C of F508del-CFTR: markedly increased
JNK
  phospho-c-jun levels: reduced
ATP7BH1069Q [7]
  percentage of the cells exhibiting ATP7BH1069Q in the ER: reduced
F508del-CFTR [8]
  correction of the F508del-CFTR proteostasis defect: effective

## O=c1ncn2nc(Sc3ccc(F)cc3F)ccc2c1-c1c(Cl)cccc1Cl [VX-745]
ATP7BH1069Q [7]
  percentage of the cells exhibiting ATP7BH1069Q in the ER: reduced
ATP7B H1069Q [2]
  rescue of ATP7B H1069Q (ER to Golgi): rescue H1069Q potently
ATP7B H1069Q [3]
  rescue of ATP7B H1069Q (ER to Golgi): rescue H1069Q potently
ATP7BH1069Q [4]
  Copper levels in ATP7BH1069Q expressing cells: reduced
